What follows are compounds tested on hMPV A2 TN/94-49 (assay: HMPV antiviral assay Method 2 (LLC-MK2 cells with CP-100-356, ATP-Lite)). Details: hMPV A2 TN/94-49, LLC-MK2 cells, 4 μM CP-100-356, Method 2.
Type: cell-based
Method: In vitro HMPV antiviral activity was evaluated using the clinical isolate A2 strain TN 94-49 (obtained from Dr. John Williams, Vanderbilt University, Tennessee) and LLC-MK2 cells (Millipore Sigma CB_85062804), an immortalized kidney epithelial cell line from Macaca mulatta. Compounds were resuspended in dimethyl sulfoxide (DMSO) at 10 mM, serially diluted and added to a 384-well source plate. Subsequently, the compounds were diluted and transferred onto 384-well assay plates using the Echo-650 automated liquid handling system (Beckman Coulter, Indiana). The test compounds were assessed in duplicate at a top concentration of 200 nM followed by 2.5-fold serial dilutions to give a total of 10 concentration points. DMSO control wells were also included on the assay plates and were either infected or not, acting as positive and negative controls. A2 TN 94-49 virus infections were performed in-suspension with LLC-MK2 cells. The cells were washed twice with PBS and removed from the cell-culture flask with 0.25% trypsin-EDTA (Thermo Fisher Scientific, MA). The trypsin-EDTA was inactivated by resuspending in 2% fetal bovine serum (FBS) and OptiMEM (ThermoFisher Scientific, MA) containing 1% antibiotic-antimycotic. Cells were pelleted by centrifuging for 5 minutes at 800 rpm, the supernatant was removed, and cells were re-suspended and washed in PBS plus 100 μg/mL CaCl2). This step was performed twice. Cells were then re-suspended in serum-free (SF)-OptiMEM containing 4 μg/mL TPCK-Trypsin (Sigma Aldrich, MO), 1% antibiotic-antimycotic (ThermoFisher Scientific, MA), 100 μg/mL CaCl2), and 4 μM of CP-100-356, a P-glycoprotein inhibitor. Cells were counted and seeded at a density of 5,000 cells/well, 12.5 μL/well. Virus infections were done at a multiplicity of infection (MOI) of 0.16 with 12.5 μL added per well. Virus infections were performed in infection media which contained SF-OptiMEM, 100 μg/mL CaCl2) and 1% antibiotic-antimycotic. HMPV viral stocks are suspended in infection media+5% glycerol, thus an equal volume of infection media+5% glycerol was added to uninfected wells to equalize the final % glycerol across all wells of the assay plate. The final concentration of TPCK-trypsin was 2 μg/mL. The final concentration of CP-100-356 was 2 μM. The assay plates were incubated at 37° C., 5% CO2 for 7 days. After 7 days incubation, 12.5 μL of ATP-Lite (PerkinElmer, MA) was added to each well and the raw luminescence values were determined using the Envision 2104 (Perkin Elmer, MA). The average of the raw luminescence values for the cells and virus only positive control wells was subtracted from all conditions tested and the percent cell health was determined by dividing these values by the average of the cells only negative control wells. EC50 values were then calculated by non-linear regression using a four-parameter curve logistic equation. The curve fit model employed was XLFit Dose Response One Site Model 200: y=(A+(B/(1+((x/C)^D)))), where A is the minimum y value, B is the maximum y value, C is the log EC50value, and D is the slope factor.
Compound COc1cc(C(=O)NC[C@@](O)(c2ccccc2)c2cc3c(c(-c4cc(Cl)c(F)cc4F)n2)OC[C@]3(C)C(N)=O)cc2c1OCCC2 [Example 93] has an EC50 greater than 200 nM. Compound COc1cc(OC)c2cc(C(=O)NC[C@@](O)(c3ccccc3)c3cc4c(c(-c5cc(Cl)c(F)cc5F)n3)OC[C@]4(C)C(N)=O)[nH]c2c1 [Example 94] has an EC50 greater than 200 nM. Work on C[C@]1(C(N)=O)COc2c1cc([C@@](O)(CNC(=O)c1cc(Cl)c3nn(C(F)F)cc3c1)c1ccccc1)nc2-c1cc(Cl)c(F)cc1F [Example 102] yielded an EC50 greater than 200 nM. With Cc1cc(C(=O)NC[C@@](O)(c2ccccc2)c2cc3c(c(-c4cc(Cl)c(F)cc4F)n2)OC[C@]3(C)C(N)=O)cc2cn[nH]c12 [Example 118] the EC50 was less than 200 nM. Cc1nc2c(OC(F)(F)F)cc(C(=O)NC[C@@](O)(c3ccccc3)c3cc4c(c(-c5cc(Cl)c(F)cc5F)n3)OC[C@]4(C)C(N)=O)cc2s1 [Example 188] was tested, and the EC50 was greater than 200 nM. For Cc1nc2c(OC3CC3)cc(C(=O)NC[C@@](O)(c3ccccc3)c3cc4c(c(-c5cc(Cl)c(F)cc5F)n3)OC[C@]4(C)C(N)=O)cc2s1 [Example 189], the EC50 was less than 200 nM. C[C@]1(C(N)=O)COc2c1cc([C@@](O)(CNC(=O)c1cc(OC3CC3)c3nc(C4CC4)sc3c1)c1ccccc1)nc2-c1cc(Cl)c(F)cc1F [Example 190] showed an EC50 greater than 200 nM. For C[C@]1(C(N)=O)COc2c1cc([C@@](O)(CNC(=O)c1cc(OC3CC3)n3nc(C4CC4)cc3c1)c1ccccc1)nc2-c1cc(Cl)c(F)cc1F [Example 191], the EC50 was less than 200 nM. For C[C@]1(C(N)=O)COc2c1cc([C@@](O)(CNC(=O)c1ccc3nc(C4CC4)oc3c1)c1ccccc1)nc2-c1cc(F)c(F)cc1F [Example 194], the EC50 was less than 200 nM. C[C@]1(C(N)=O)COc2c1cc([C@@](O)(CNC(=O)c1ccc3nc(C4CC4)oc3c1)c1ccccc1)nc2-c1ccc2c(c1)OC(F)(F)O2 [Example 199] gave an EC50 greater than 200 nM. Work on COc1cc(C(=O)NC[C@@](O)(c2ccccc2)c2cc3c(c(-c4ccc5c(c4)OC(F)(F)O5)n2)OC[C@]3(C)C(N)=O)cc2oc(C3CC3)nc12 [Example 200] yielded an EC50 of less than 200 nM. COc1cc(C(=O)NC[C@@](O)(c2ccccc2)c2cc3c(c(-c4ccc5c(c4)OC(F)(F)O5)n2)OC[C@]3(C)C(N)=O)cc2oc(C)nc12 [Example 201] showed an EC50 of less than 200 nM. Compound COc1cc(C(=O)NC[C@@](O)(c2ccccc2)c2cc3c(c(-c4ccc5c(c4)OC(F)(F)O5)n2)OC[C@]3(C)C(N)=O)cc2cc(Cl)cnc12 [Example 202] has an EC50 of less than 200 nM. Work on COc1cc(C(=O)NCC(O)(c2ccc(F)cn2)c2cc3c(c(-c4cc(Cl)c(F)cc4F)n2)OC[C@]3(C)C(N)=O)cc2cn(C3CC3)nc12 (stereo partly shown) [Example 210] yielded an EC50 of less than 200 nM. In the case of C[C@]1(C(N)=O)COc2c1cc([C@@](O)(CNC(=O)c1cc(OC(F)F)c3nc(C4CC4)oc3c1)c1ccccc1)nc2-c1cc(Cl)c(F)cc1F [Example 216], the EC50 is reported as less than 200 nM. Compound C[C@]1(C(N)=O)COc2c1cc([C@@](O)(CNC(=O)c1ccc3nc(C4CCC4)oc3c1)c1ccccc1)nc2-c1cc(Cl)c(F)cc1F [Example 221] has an EC50 greater than 200 nM. C[C@]1(C(N)=O)COc2c1cc([C@@](O)(CNC(=O)c1ccc3nc(C(F)F)oc3c1)c1ccccc1)nc2-c1cc(Cl)c(F)cc1F [Example 222] showed an EC50 greater than 200 nM. With C[C@]1(C(N)=O)COc2c1cc([C@@](O)(CNC(=O)c1ccc3nc(-c4ccc5nc(C(F)F)oc5c4)oc3c1)c1ccccc1)nc2-c1cc(Cl)c(F)cc1F [Example 223] the EC50 was greater than 200 nM. Compound CC(C)c1nc2ccc(C(=O)NC[C@@](O)(c3ccccc3)c3cc4c(c(-c5cc(Cl)c(F)cc5F)n3)OC[C@]4(C)C(N)=O)cc2o1 [Example 224] has an EC50 greater than 200 nM. With C[C@]1(C(N)=O)COc2c1cc([C@@](O)(CNC(=O)c1ccc3nc(-c4ccccc4)oc3c1)c1ccccc1)nc2-c1cc(Cl)c(F)cc1F [Example 227] the EC50 was greater than 200 nM. C[C@]1(C(N)=O)COc2c1cc([C@@](O)(CNC(=O)c1cc(C(F)(F)F)c3nn(C4CC4)cc3c1)c1ccccc1)nc2-c1cc(Cl)c(F)cc1F [Example 228] gave an EC50 of less than 200 nM. Work on C[C@]1(C(N)=O)COc2c1cc([C@@](O)(CNC(=O)c1cc(C(F)F)c3nn(C4CC4)cc3c1)c1ccccc1)nc2-c1cc(Cl)c(F)cc1F [Example 229] yielded an EC50 of less than 200 nM. C[C@]1(C(N)=O)COc2c1cc([C@@](O)(CNC(=O)c1ccc3nc(Cc4ccccc4)oc3c1)c1ccccc1)nc2-c1cc(Cl)c(F)cc1F [Example 230] showed an EC50 greater than 200 nM. Compound C[C@]1(C(N)=O)COc2c1cc([C@@](O)(CNC(=O)c1cc(OC(F)F)c3ncc(Cl)cc3c1)c1ccccc1)nc2-c1cc(Cl)c(F)cc1F [Example 231] has an EC50 of less than 200 nM. C[C@]1(C(N)=O)COc2c1cc([C@@](O)(CNC(=O)c1cc(Cl)c3nc(C4CC4)oc3c1)c1ccccc1)nc2-c1cc(Cl)c(F)cc1F [Example 232] was tested, and the EC50 was less than 200 nM. For C[C@]1(C(N)=O)COc2c1cc([C@@](O)(CNC(=O)c1cc(OC3CC3)c3nc(C4CC4)oc3c1)c1ccccc1)nc2-c1cc(Cl)c(F)cc1F [Example 233], the EC50 was less than 200 nM. Compound Cc1nc2c(OC3CC3)cc(C(=O)NC[C@@](O)(c3ccccc3)c3cc4c(c(-c5cc(Cl)c(F)cc5F)n3)OC[C@]4(C)C(N)=O)cc2o1 [Example 234] has an EC50 of less than 200 nM. For COc1cc(C(=O)NC[C@@](O)(c2ccccc2)c2cc3c(c(-c4cc(Cl)c(F)cc4F)n2)OC[C@]3(C)C(N)=O)cc(O)c1NC(=O)C1(F)CC1 [Example 242], the EC50 was greater than 200 nM. C[C@]1(C(N)=O)COc2c1cc([C@@](O)(CNC(=O)c1ccc3nc(C4CC4)oc3c1)c1ccccc1)nc2-c1cc(C(F)F)c(F)cc1F [Example 311] gave an EC50 of less than 200 nM. Work on C[C@]1(C(N)=O)COc2c1cc([C@@](O)(CNC(=O)c1ccc3nc(C4CC4)oc3c1)c1cccc(F)c1)nc2-c1ccc(F)c(Cl)c1Cl [Example 312] yielded an EC50 of less than 200 nM. C[C@]1(C(N)=O)COc2c1cc([C@@](O)(CNC(=O)c1cc(OC3CC3)c3ncc(Cl)cc3c1)c1ccccc1)nc2-c1cc(C(F)(F)F)c(F)cc1F [Example 315] showed an EC50 of less than 200 nM. With COc1cc(C(=O)NC[C@@](O)(c2ccccc2)c2cc3c(c(-c4cc(Cl)ccc4F)n2)OC[C@]3(C)C(N)=O)cc2oc(C3CC3)nc12 [Example 331] the EC50 was less than 200 nM. COc1cc(C(=O)NC[C@@](O)(c2ccccc2)c2cc3c(c(-c4cc(C(F)(F)F)ccc4F)n2)OC[C@]3(C)C(N)=O)cc2oc(C3CC3)nc12 [Example 332] gave an EC50 of less than 200 nM. For COc1cc(C(=O)NC[C@@](O)(c2cccc(F)c2)c2cc3c(c(-c4cccc(Cl)c4Cl)n2)OC[C@]3(C)C(N)=O)cc2cc(Cl)cnc12 [Example 333], the EC50 was less than 200 nM. In the case of C[C@]1(C(N)=O)COc2c1cc([C@@](O)(CNC(=O)c1cc(OC3CC3)c3ncc(Cl)cc3c1)c1cccc(F)c1)nc2-c1cccc(Cl)c1Cl [Example 334], the EC50 is reported as less than 200 nM. For C[C@]1(C(N)=O)COc2c1cc([C@@](O)(CNC(=O)c1cc(OC3CC3)n3nc(C4CC4)cc3c1)c1cccc(F)c1)nc2-c1cccc(Cl)c1Cl [Example 335], the EC50 was less than 200 nM. For COc1cc(C(=O)NCC(O)(c2ccccc2)c2cc3c(c(-c4ccc(F)cc4)n2)OC[C@]3(C)C(N)=O)cc2cn(C3(F)CC3)nc12 (stereo partly shown) [Example 361], the EC50 was greater than 200 nM. With COc1cc(C(=O)NCC(O)(c2ccccc2)c2cc3c(c(-c4ccc(F)c(Cl)c4)n2)OC[C@]3(C)C(N)=O)cc2cn(C3(F)CC3)nc12 (stereo partly shown) [Example 362] the EC50 was less than 200 nM. For COc1cc(F)c(F)cc1-c1nc([C@@](O)(CNC(=O)c2cc(OC)c3nn(C4(F)CC4)cc3c2)c2ccccc2)cc2c1OC[C@]2(C)C(N)=O [Example 365], the EC50 was less than 200 nM. COc1cc(C(=O)NC[C@@](O)(c2ccccc2)c2cc3c(c(-c4cccc(F)c4F)n2)OC[C@]3(C)C(N)=O)cc2cn(C3(F)CC3)nc12 [Example 367] showed an EC50 of less than 200 nM. In the case of COc1cc(C(=O)NC[C@@](O)(c2ccccc2)c2cc3c(c(-c4cc(S(C)(=O)=O)ccc4F)n2)OC[C@]3(C)C(N)=O)cc2cn(C3(F)CC3)nc12 [Example 372], the EC50 is reported as greater than 200 nM. COc1cccc(-c2nc([C@@](O)(CNC(=O)c3cc(OC)c4nn(C5(F)CC5)cc4c3)c3ccccc3)cc3c2OC[C@]3(C)C(N)=O)c1Cl [Example 374] gave an EC50 of less than 200 nM. For COc1c(F)ccc(-c2nc([C@@](O)(CNC(=O)c3cc(OC)c4nn(C5(F)CC5)cc4c3)c3ccccc3)cc3c2OC[C@]3(C)C(N)=O)c1Cl [Example 375], the EC50 was less than 200 nM.

— patent US12358921B2, “Antiviral heterocyclic compounds” (priority 2022, dated 2025)
